In assay [1] the test system is T1, mBFP.
T1 construct: no tag mentioned; codon-optimized gene (amplicon 780 bp) used only in cells
Nature of the assay: photometric benzaldehyde reductase assay, Michaelis-Menten fit. Format: biochemical, uncultured bacterium. As to conditions: phosphate buffer pH 8, 30 °C.

For assay [2], the target named is T1, mBFP. Nature of the assay: thermal shift (SYPRO Orange), concentration dependence. Format: binding, uncultured bacterium. Conditions: NADPH 0-10 mM; 40 to 70 °C in 0.5 °C steps.

With `O=Cc1ccccc1` [benzaldehyde], in assay [1] (200 μM NADPH, benzaldehyde 0.5-12.5 mM), the Michaelis-Menten constant (Km) turned out to be 3100 µM.

On to `NC(=O)C1=CN([C@@H]2O[C@H](COP(=O)(O)OP(=O)(O)OC[C@H]3O[C@@H](n4cnc5c(N)ncnc54)[C@H](OP(=O)(O)O)[C@@H]3O)[C@@H](O)[C@H]2O)C=CC1` [NADPH], for which the Michaelis constant (Km) in assay [1] (12.5 mM benzaldehyde, NADPH 0.5-180 μM) turned out to be 41 µM. For the same compound, the Kd in assay [2] is 640 µM.

What is called Km is the substrate concentration at which the rate is half of its maximum. The term Kd denotes the concentration at which binding is half-saturated.

(Values after PMC6207642, “Real Time Monitoring of NADPH Concentrations in Corynebacterium glutamicum and Escherichia coli via the Genetically Encoded Sensor mBFP” (Frontiers in Microbiology, 2018).)
